In article PMC4526345 (Biochemistry, 2015):

How the values were obtained:
HDAC8 [1] = conditions: read-out: IC50 HDAC8; cited from earlier work
HDAC8 [2] = molecular target: T1, HDAC8 (Homo sapiens, UniProt Q9BY41); test: Deacetylation of N^8-acetylspermidine by HDAC8; assay type: biochemical; conditions: overnight incubation with HDAC8; data not shown
T1 sequence (Q9BY41 1-377): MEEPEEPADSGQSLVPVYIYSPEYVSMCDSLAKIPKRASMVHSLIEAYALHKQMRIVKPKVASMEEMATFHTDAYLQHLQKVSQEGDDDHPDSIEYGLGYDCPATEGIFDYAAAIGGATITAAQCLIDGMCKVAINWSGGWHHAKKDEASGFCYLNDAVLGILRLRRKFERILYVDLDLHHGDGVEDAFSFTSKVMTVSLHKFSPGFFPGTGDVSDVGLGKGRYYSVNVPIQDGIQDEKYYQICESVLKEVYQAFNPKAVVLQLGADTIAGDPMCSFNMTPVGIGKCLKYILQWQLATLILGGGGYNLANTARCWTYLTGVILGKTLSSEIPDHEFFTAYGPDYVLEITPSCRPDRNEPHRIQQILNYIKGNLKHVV

Mycoplana ramosa APAH = Mycoplana ramosa APAH (Mycoplana ramosa, UniProt Q48935); test: APAH inhibition, fluorimetric Fluor-de-Lys assay; assay type: biochemical; conditions: also evaluated after 30 and 60 min incubation times
Chain of Mycoplana ramosa APAH (Q48935 whole entry): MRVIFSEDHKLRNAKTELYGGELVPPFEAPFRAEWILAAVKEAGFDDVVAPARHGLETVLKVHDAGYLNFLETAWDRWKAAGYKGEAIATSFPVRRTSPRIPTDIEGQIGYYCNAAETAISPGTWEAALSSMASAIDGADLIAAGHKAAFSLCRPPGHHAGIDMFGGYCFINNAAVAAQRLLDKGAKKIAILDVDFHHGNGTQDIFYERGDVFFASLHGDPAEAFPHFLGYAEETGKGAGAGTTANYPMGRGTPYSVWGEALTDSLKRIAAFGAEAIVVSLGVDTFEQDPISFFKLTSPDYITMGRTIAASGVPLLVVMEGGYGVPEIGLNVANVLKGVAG

## largazole thiol
HDAC8 [1]
  IC50: 102 nM

## CC(=O)NCCCCNCCCN [N^8-acetylspermidine]
HDAC8 [2]
  spermidine product formed by HDAC8: does not yield any measurable spermidine product

## Cl.NCCCCCCC(=O)NO [Compound 6, 7-Amino-N-hydroxyheptanamide hydrochloride salt]
Mycoplana ramosa APAH
  time-dependent inhibition of APAH: not observed
